In PMC4563558, “Discovery of a series of novel phenylpiperazine derivatives as EGFR TK inhibitors” (Scientific Reports, 2015):

Tests used:
[1] = Acute oral toxicity, bodyweights; assay type: in vivo; settings: mice; for Bodyweights 0 day ± SD: day 0; for Bodyweights 7 days ± SD: day 7
Method: Before the acute toxicity experiment, mice were stopped being served food but water was kept for 3 h. The test substances were dissolved in maize germ oil[24]. The preliminary experiment was performed as follows: Four dose levels, 100, 500, 2000, and 5000 mg/kg body weight and three mice for each level were used. We observed the death and evident toxicity in 7 days to determine the general concentration range. Then the administration doses were graded with geometric progression for ease of the calculation of LD50. Mice were randomly divided into groups (10 mice/group). […] The control groups received maize germ oil only. After the administration, food was withheld for 2 h.

VEGFR2 = target: T1, VEGFR2 (Homo sapiens, UniProt P35968); experiment: Kinase selectivity assay (kit), VEGFR2; assay type: biochemical; settings: read-out: Inhibition of VEGFR2 IC50
T1 construct: purchased Bio-Swamp
Method: (§1) To validate whether the above anti-proliferative effect was produced by interaction of EGFR protein and the synthesized compounds, the synthesized compounds were evaluated for their abilities to inhibit the activity of four protein kinases relevant to cancer: EGFR, VEGFR2, bFGF, PDGFR. […] Additionally, the activity data inferred that the IC50 values of these compounds shared a similar tendency with their relevant IC50 values of anti-proliferative assay. […] Therefore, we could conclude that the synthesized inhibitors can inhibit the function of EGFR and the anti-proliferative effect was produced partly by interaction of EGFR protein and the compounds.
(§2) The EGFR, VEGFR2, bFGF and PDGFR Kinase Assay Kit were purchased from Bio-Swamp. The experiments were performed according to the manufacturer’s instructions.

A549 = experiment: MTT antiproliferation assay, A549; assay type: cell-based; settings: Homo sapiens, 72 h exposure, read-out: IC50 ± SD, A549
Method: (§3) To test the antiproliferative activities of the synthesized compounds (see supplementary Scheme S1 and S2), the target compounds were evaluated in vitro antiproliferation assays against three human cancer cell lines (MCF-7, HeLa and A549) and one human normal lung cell line.
(§4) The in vitro anticancer activities of the prepared compounds against MCF-7, HeLa and A549 cell lines were evaluated as described in the literature[23] with some modifications. Target tumor cells were grown to log phase in DMEM medium supplemented with 10% fetal bovine serum. After reaching a dilution of 1 × 10^5 cells mL^−1 with the medium, 100 μL of the obtained cell suspension was added to each well of 96-well culture plates. Subsequently, incubation was performed at 37 °C in 5% CO2 atmosphere for 48 h before the cytotoxicity assessment. Tested samples at preset concentrations were added to 6 wells with Erlotinib being employed as a positive reference. After 72 h exposure period, 25 μL of PBS containing 2.5 mg mL^−1 of MTT was added to each well. After 4 h, the medium was replaced by 150 μL DMSO to dissolve the purple formazan crystals produced. The absorbance at 570 nm of each well was measured with an ELISA plate reader. The data represented the mean of three independent experiments in triplicate and were expressed as means ± SD. The IC50 value was defined as the concentration at which 50% of the cells could survive.

EGFR = target: T2, EGFR (Homo sapiens, UniProt P00533); experiment: Kinase selectivity assay (kit), EGFR; assay type: biochemical; settings: read-out: Inhibition of EGFR IC50
T2 construct: purchased Bio-Swamp
Method: as §2

PDGFR = experiment: Kinase selectivity assay (kit), PDGFR; assay type: biochemical; settings: read-out: Inhibition of PDGFR IC50
Method: as §1, §2

Erythrocytes = experiment: Hemolysis test; assay type: cell-based; settings: human erythrocytes, 3 h incubation
Method: Hemolytic activity was assayed using fresh capillary human blood. Erythrocytes were collected by centrifuging the blood three times in chilled phosphate buffered saline (PBS at 4 °C) at 1000 × g for 10 min. The final pellet was resuspended in PBS to give a 2% w/v solution. Using a microtitre plate, 100 μL of the erythrocyte solution was added to dextran, PLL, stearyl-PLL or stearyl-PLL+LDL (1–1000/μg/mL) in a volume of […]. Samples were then incubated for 3 h and the microtitre plate was centrifuged then at 1000 × g for 10 min and the supernatants (100 μL) transferred into a new microtitre plate. Hemoglobin release was determined spectrophotometrically using a microtitre plate reader (absorbance at 550 nm). Results were expressed as the amount of released hemoglobin induced by the compounds as a percentage of the total. Hemolysis test was tested according to the guide of biological evaluation of medical device (SFDA, China).

HeLa = experiment: MTT antiproliferation assay, HeLa; assay type: cell-based; settings: Homo sapiens, 72 h exposure, read-out: IC50 ± SD, HeLa
Method: as §3, §4

in vitro = assay type: cell-based; settings: mouse
Method: The cytotoxic activity in vitro was measured against mouse fibroblast NIH-3T3 cells using the MTT assay. Cells were cultured in a 96-well plate at a density of 5 × 10^5 cells and different concentrations of compounds were respectively added to each well. The incubation was permitted at 37 °C, 5% CO2 atmosphere for 24 h before the cytotoxicity assessments. 20 μL MTT reagent (4 mg/mL) was added per well 4 h before the end of the incubation. Four hours later, the plate was centrifuged at 1200 rcf for 5 min and the supernatants were removed, each well was added with 200 μL DMSO. The absorbance was measured at a wavelength of 490 nm (OD 490 nm) on an ELISA microplate reader. Three replicate wells were used for each concentration and each assay was measured three times, after which the average of IC50 was calculated.

Lung cells = experiment: MTT assay, human normal lung cell line; assay type: cell-based; settings: read-out: IC50 ± SD, Lung cells
Method: as §3, §4

bFGF = experiment: Kinase selectivity assay (kit), bFGF; assay type: biochemical; settings: read-out: Inhibition of bFGF IC50
Method: as §1, §2

MCF-7 = experiment: MTT antiproliferation assay, MCF-7; assay type: cell-based; settings: Homo sapiens, MCF7, 72 h exposure, read-out: IC50 ± SD, MCF-7
Method: as §3, §4

A549 cells = experiment: Tumor volume in nude mice inoculated with A549 cells; assay type: in vivo; settings: 20 mg/kg/2 days, day 14
Method: To further evaluate the antitumor effect of compound 3p in vivo, we performed an animal study. Mice were inoculated subcutaneously with A549 cells (5.0 × 10^6) on their shoulders. […]. […] […].
Male BALB/c nude mice, 35–40 days old and weighing 18–22 g, were supplied by Shanghai Laboratory Animal Limited Company. The mice were raised in air-conditioned rooms under controlled lighting (12 h lighting/day) and were fed with standard laboratory food and water ad libitum. Before injection into the mice, the lung cancer cells (A549) were harvested by trypsinization and washed three times with cold serum-free medium and then injected in a total volume of 0.1 mL using a 1-mL latex-free syringe (BD) within 30 min of harvest. Mice were inoculated subcutaneously with A549 cells (5.0 × 10^6) on their shoulders. When the tumor had increased to 100 mm^3 , the mice were equally randomized into 4 groups (with 6 mice/group): saline tumor control group; compound 3p 20 mg/kg/2 days group; compound 3p 40 mg/kg/2 days group; […]. The control group received 0.9% normal saline. Tumor size was measured once every 2 days in two per-pendicular dimensions with Vernier calipers and converted to tumor volume (TV) using the formula: (ab^2)/2, where a and b refer to the longer and shorter dimensions, respectively. The body weight of the animals was measured twice a week at the same time as the tumor dimension measurement and the mortality was monitored daily. After the treatments, all mice were killed and weighed simultaneously, and then tumor was segregated and weighed.

[2] = test system: MCF-7, HeLa and A549 cell lines; experiment: Anticancer activities discussed in text (cell line not specified); assay type: cell-based, human; settings: comparison within series and with positive control
Method: According to the data presented in Table 1, it could be concluded that the activity of the tested compounds may be correlated to the variation and modifications of structure.
as §4

T1 sequence (P35968 20-1356, species assumed): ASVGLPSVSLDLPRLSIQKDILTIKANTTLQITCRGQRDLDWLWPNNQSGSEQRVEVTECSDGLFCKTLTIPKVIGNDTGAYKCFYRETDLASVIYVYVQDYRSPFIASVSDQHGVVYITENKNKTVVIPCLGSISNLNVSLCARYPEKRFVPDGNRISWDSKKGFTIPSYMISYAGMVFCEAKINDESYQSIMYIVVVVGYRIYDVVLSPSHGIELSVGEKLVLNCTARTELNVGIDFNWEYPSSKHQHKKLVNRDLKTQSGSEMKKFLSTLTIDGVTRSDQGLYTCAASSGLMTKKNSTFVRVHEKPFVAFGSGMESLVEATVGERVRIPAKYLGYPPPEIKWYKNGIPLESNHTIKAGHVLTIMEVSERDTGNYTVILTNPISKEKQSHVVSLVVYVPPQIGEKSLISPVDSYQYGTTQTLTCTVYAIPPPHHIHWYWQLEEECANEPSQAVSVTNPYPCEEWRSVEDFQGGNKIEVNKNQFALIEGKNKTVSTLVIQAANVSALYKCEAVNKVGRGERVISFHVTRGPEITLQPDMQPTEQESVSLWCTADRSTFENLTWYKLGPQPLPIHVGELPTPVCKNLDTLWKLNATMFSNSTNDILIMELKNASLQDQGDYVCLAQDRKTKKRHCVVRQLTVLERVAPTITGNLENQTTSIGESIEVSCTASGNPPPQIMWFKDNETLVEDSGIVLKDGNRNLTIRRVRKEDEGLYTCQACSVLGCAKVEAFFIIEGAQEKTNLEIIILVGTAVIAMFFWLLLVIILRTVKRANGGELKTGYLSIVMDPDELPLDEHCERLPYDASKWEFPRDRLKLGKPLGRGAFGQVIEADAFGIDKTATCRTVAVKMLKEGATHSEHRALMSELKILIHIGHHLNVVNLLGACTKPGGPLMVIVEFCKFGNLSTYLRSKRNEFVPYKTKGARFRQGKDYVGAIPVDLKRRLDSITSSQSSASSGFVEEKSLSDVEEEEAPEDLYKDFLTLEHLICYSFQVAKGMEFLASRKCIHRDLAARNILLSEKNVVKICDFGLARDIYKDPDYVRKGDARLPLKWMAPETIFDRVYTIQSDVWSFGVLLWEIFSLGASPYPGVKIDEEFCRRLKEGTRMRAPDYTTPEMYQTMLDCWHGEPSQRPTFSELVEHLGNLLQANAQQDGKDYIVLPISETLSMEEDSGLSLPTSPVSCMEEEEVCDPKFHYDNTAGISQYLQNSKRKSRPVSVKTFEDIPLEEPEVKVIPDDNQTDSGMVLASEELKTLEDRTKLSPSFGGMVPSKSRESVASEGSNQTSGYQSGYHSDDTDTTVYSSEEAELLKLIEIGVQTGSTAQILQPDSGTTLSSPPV
T2 sequence (P00533 25-1210): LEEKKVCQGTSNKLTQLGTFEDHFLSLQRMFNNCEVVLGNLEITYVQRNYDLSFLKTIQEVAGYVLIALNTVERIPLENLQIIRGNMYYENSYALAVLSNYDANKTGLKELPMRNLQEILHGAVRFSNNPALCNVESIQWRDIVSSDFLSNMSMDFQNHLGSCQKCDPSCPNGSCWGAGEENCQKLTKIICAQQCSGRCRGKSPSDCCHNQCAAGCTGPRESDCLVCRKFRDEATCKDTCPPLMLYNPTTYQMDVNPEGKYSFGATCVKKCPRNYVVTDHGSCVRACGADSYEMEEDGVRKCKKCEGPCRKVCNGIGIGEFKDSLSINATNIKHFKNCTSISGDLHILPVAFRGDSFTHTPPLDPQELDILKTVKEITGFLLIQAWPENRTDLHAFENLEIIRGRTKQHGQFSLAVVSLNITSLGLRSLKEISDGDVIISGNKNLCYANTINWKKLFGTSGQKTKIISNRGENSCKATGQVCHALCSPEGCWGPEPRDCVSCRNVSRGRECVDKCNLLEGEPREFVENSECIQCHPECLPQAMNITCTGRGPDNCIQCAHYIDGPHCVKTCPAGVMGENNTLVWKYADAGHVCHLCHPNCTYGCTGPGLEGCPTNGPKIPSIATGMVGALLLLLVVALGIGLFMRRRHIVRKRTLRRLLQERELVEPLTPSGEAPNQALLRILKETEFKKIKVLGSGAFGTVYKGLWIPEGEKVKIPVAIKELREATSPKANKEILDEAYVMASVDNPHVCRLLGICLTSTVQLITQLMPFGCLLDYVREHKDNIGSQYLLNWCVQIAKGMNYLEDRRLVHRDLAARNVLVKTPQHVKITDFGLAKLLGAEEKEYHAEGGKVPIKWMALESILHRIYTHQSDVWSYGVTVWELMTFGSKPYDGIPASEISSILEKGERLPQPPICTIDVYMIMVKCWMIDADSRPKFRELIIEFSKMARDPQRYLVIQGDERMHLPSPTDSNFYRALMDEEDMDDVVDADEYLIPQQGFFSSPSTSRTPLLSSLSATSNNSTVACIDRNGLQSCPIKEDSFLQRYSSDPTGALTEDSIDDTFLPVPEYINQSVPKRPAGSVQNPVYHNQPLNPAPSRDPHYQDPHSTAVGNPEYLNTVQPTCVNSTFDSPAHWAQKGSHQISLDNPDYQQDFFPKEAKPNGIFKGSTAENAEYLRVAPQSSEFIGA

SMILES: COc1cc(OC)nc(NC(=O)CN2CCN(c3ccccn3)CC2)n1 [3m, N-(4,6-Dimethoxypyrimidin-2-yl)-2-(4-(pyridin-2-yl)piperazin-1-yl)acetamide]
- Bodyweights 0 day ± SD [1]: 22.43 ± 1.02 g
- Bodyweights 7 days ± SD [1]: 22.09 ± 1.02 g
- IC50 (VEGFR2): 7.23 ± 0.78 µM
- IC50 (A549): 1.55 ± 0.004 µM
- IC50 (EGFR): 2.55 ± 0.67 µM
- IC50 (PDGFR): 50 ± 4.76 µM
- Hemolysis LC30 (lytic concentration 30%) (Erythrocytes): >10000 µg/mL
- IC50 (HeLa): 5.11 ± 0.006 µM
- IC50 at 24 h (in vitro): 182 ± 3.22 µM
- IC50 (Lung cells): 165.8 ± 0.59 µM
- IC50 (bFGF): 3.8 ± 0.036 µM
- IC50 (MCF-7): 2.87 ± 0.004 µM

SMILES: C#Cc1cccc(Nc2ncnc3cc(OCCOC)c(OCCOC)cc23)c1 [Erlotinib, reference compound]
- IC50 (A549): 0.1 ± 0.0004 µM
- IC50 (HeLa): 0.11 ± 0.01 µM
- IC50 (Lung cells): 195.2 ± 1.27 µM
- Reduction of the growth of tumors (A549 cells): 49.09%
- IC50 (MCF-7): 0.15 ± 0.03 µM

SMILES: COc1ccc(N2CCN(CC(=O)Nc3nc(OC)cc(OC)n3)CC2)cc1 [3i, N-(4,6-Dimethoxypyrimidin-2-yl)-2-(4-(4-methoxyphenyl)piperazin-1-yl)acetamide]
- Bodyweights 0 day ± SD [1]: 21.33 ± 0.67 g
- Bodyweights 7 days ± SD [1]: 25.83 ± 1.30 g
- IC50 (VEGFR2): 3.99 ± 0.08 µM
- Anticancer / antitumor activity (in words) [2]: better anticancer activities compared to the positive control
- IC50 (A549): 2.22 ± 0.05 µM
- IC50 (EGFR): 0.91 ± 0.006 µM
- IC50 (PDGFR): 31.8 ± 3.12 µM
- Hemolysis LC30 (lytic concentration 30%) (Erythrocytes): >10000 µg/mL
- IC50 (HeLa): 0.9 ± 0.07 µM
- IC50 at 24 h (in vitro): 198.5 ± 1.13 µM
- IC50 (Lung cells): 197.5 ± 1.74 µM
- IC50 (bFGF): 22.35 ± 0.1 µM
- IC50 (MCF-7): 2.98 ± 0.09 µM

SMILES: N.N.[Cl][Pt][Cl] [DDCP, reference compound]
- Hemolysis LC30 (lytic concentration 30%) (Erythrocytes): >10000 µg/mL

SMILES: COc1cc(OC)nc(NC(=O)CN2CCN(c3ccccc3OC)CC2)n1 [3e, N-(4,6-Dimethoxypyrimidin-2-yl)-2-(4-(2-methoxyphenyl)piperazin-1-yl)acetamide]
- Bodyweights 0 day ± SD [1]: 21.11 ± 1.34 g
- Bodyweights 7 days ± SD [1]: 25.34 ± 1.15 g
- IC50 (VEGFR2): 5.33 ± 0.05 µM
- Anticancer / antitumor activity (in words) [2]: better anticancer activities compared to the positive control
- IC50 (A549): 1.97 ± 0.001 µM
- IC50 (EGFR): 1.01 ± 0.004 µM
- IC50 (PDGFR): 10 ± 1.17 µM
- Hemolysis LC30 (lytic concentration 30%) (Erythrocytes): >10000 µg/mL
- IC50 (HeLa): 1.55 ± 0.006 µM
- IC50 at 24 h (in vitro): 173 ± 5.31 µM
- IC50 (Lung cells): 189.3 ± 1.78 µM
- IC50 (bFGF): 11.5 ± 0.89 µM
- IC50 (MCF-7): 2.57 ± 0.02 µM

SMILES: COc1cc(OC)nc(NC(=O)CN2CCN(c3cccc(C(F)(F)F)c3)CC2)n1 [3r, N-(4,6-Dimethoxypyrimidin-2-yl)-2-(4-(3-(trifluoromethyl)phenyl)piperazin-1-yl)acetamide]
- Bodyweights 0 day ± SD [1]: 21.00 ± 1.01 g
- Bodyweights 7 days ± SD [1]: 25.07 ± 1.21 g
- IC50 (VEGFR2): 6.95 ± 0.68 µM
- IC50 (A549): 0.33 ± 0.07 µM
- IC50 (EGFR): 1.96 ± 0.006 µM
- IC50 (PDGFR): 3.87 ± 0.92 µM
- Hemolysis LC30 (lytic concentration 30%) (Erythrocytes): >10000 µg/mL
- IC50 (HeLa): 4.02 ± 0.01 µM
- IC50 at 24 h (in vitro): 185 ± 2.16 µM
- IC50 (Lung cells): 150 ± 3.03 µM
- IC50 (bFGF): 33.9 ± 3.59 µM
- IC50 (MCF-7): 4.97 ± 0.01 µM

SMILES: COc1cc(OC)nc(NC(=O)CN2CCN(c3ccccc3F)CC2)n1 [3c, N-(4,6-Dimethoxypyrimidin-2-yl)-2-(4-(2-fluorophenyl)piperazin-1-yl)acetamide]
- Bodyweights 0 day ± SD [1]: 21.09 ± 1.16 g
- Bodyweights 7 days ± SD [1]: 26.09 ± 0.93 g
- IC50 (VEGFR2): 8.94 ± 0.73 µM
- IC50 (A549): 0.55 ± 0.02 µM
- IC50 (EGFR): 1.35 ± 0.006 µM
- IC50 (PDGFR): 33.8 ± 1.94 µM
- Hemolysis LC30 (lytic concentration 30%) (Erythrocytes): >10000 µg/mL
- IC50 (HeLa): 2.69 ± 0.1 µM
- IC50 at 24 h (in vitro): 230 ± 3.15 µM
- IC50 (Lung cells): 178 ± 2.02 µM
- IC50 (bFGF): 25.4 ± 2.34 µM
- IC50 (MCF-7): 4.13 ± 0.01 µM

SMILES: COc1cc(OC)nc(NC(=O)CN2CCN(c3ccc([N+](=O)[O-])cc3)CC2)n1 [3f, N-(4,6-Dimethoxypyrimidin-2-yl)-2-(4-(4-nitrophenyl)piperazin-1-yl)acetamide]
- Bodyweights 0 day ± SD [1]: 20.57 ± 1.43 g
- Bodyweights 7 days ± SD [1]: 27.25 ± 1.50 g
- IC50 (VEGFR2): 7.67 ± 0.07 µM
- IC50 (A549): 0.08 ± 0.003 µM
- IC50 (EGFR): 2.12 ± 0.08 µM
- IC50 (PDGFR): 24.5 ± 2.56 µM
- Hemolysis LC30 (lytic concentration 30%) (Erythrocytes): >10000 µg/mL
- IC50 (HeLa): 4.99 ± 0.07 µM
- IC50 at 24 h (in vitro): 155 ± 3.05 µM
- IC50 (Lung cells): 202 ± 4.05 µM
- IC50 (bFGF): 21.5 ± 0.69 µM
- IC50 (MCF-7): 2.09 ± 0.01 µM
